Legend:
murine lymphocytes = experiment: Murine mixed lymphocyte reaction (BALB/c vs. C57BL6); assay type: cell-based, mouse; settings: BALB/c vs. C57BL6, FIG. 10
Protocol: MLRs were performed essentially as described in Current Protocols in Immunology (1999, Section 3.12.6-3.12.7). That is, the primary spleen cells obtained from C57/B6J mice were used as stimulators. They were purified as described in Current Protocols in Immunology (1999, Section 3.1.5), and were irradiated (35 Gy) at the Hahnemann Hospital (Philadelphia, Pa.) blood bank facility. Primary spleen cells obtained from BALB/c/BYJ were depleted from the adherent cells using a nylon wool column, and were used as responders.
The various inhibitors were pre-plated onto 96 well, U-bottom plates and all experimental conditions were assayed at least in triplicate. 100,000 C57/B6 cells in RPMI medium, supplemented with 10% FBS, were plated into each well. 200,000 of BALB/c/BYJ cells were plated over the stimulator cells, to a final volume of 200 μl/well. Background controls received either no BALB/c cells, or no C57/B6 cells. One micro Ci of tritiated thymidine was added to each well after 4 days, and the plates were harvested 12 hours later.

T cells = experiment: Macrophage media-conditioning study, T cell proliferation in conditioned media; assay type: cell-based, mouse; settings: added to conditioned media, FIG. 1
Text: Femur and tibia bones were harvested from the hind limbs of 6-8 week old C57/B6J mice (Jackson Laboratories, Bar Harbor, Me.). The distal ends of the bones were removed, exposing the marrow plugs. Using a 22 gauge needle (Becton-Dickinson, Lincoln Park, N.J.), the marrow cavities were flushed with RPMI medium supplemented 2% FBS. The cell suspension was then passed through a nylon mesh to remove stromal cells. Red blood cells were lysed using ACK (ammonium chloride potassium lysis buffer; 0.15 M NH4Cl, 10 mM KHCO3, 0.1 mM EDTA) buffer as described in Current Protocols in Immunology (Section 3.1.5).
Cells were resuspended at 10^7 cells/ml in RPMI medium, containing 10% FBS, 500 units/ml of murine M-CSF, and 3 ml/well of cell suspension were plated onto a 6 well flat-bottom plate. […] Cells were grown for 4 days. Spleens of 6-8 week old BALB/c/BYJ were harvested, and single cell suspension was made. Red blood cells were removed as described above. Adherent cells were removed by 1.5 hour incubation on a nylon wool column, and suspension cells were collected. The BALB/c cells were then plated over the C57/B6 cells (see supra), at 1.2×10^6 cells/well, in 0.65 ml (bringing brought the final volume of each well to 1.3 ml). The cells were grown for 2.5 days. When appropriate, fluoxetine or BCH were added at the beginning of this incubation. The medium from the mixed cell cultures was harvested, centrifuged at 1200 RPM to remove cells, and filtered using a 0.22 microns syringe filter (Corning). This filtered medium was used to support another round of cell proliferation.

human lymphocytes [1] = experiment: Human mitogenic (ConA) stimulation, 3H-thymidine incorporation; assay type: cell-based; settings: for effect on activation / proliferative response: ConA 5 μg/ml, FIGS. 7A, 8A, 9A
Protocol: Blood from healthy volunteers was drawn using venipuncture, using Vacutainer collection sets and heparinized collection vials. The blood was diluted 1:1 using HBSS to a total volume of 30 ml in 50 ml conical tubes (Fisher Scientific, Co., Pittsburgh, Pa.). […] Cells from the buffy coats were collected and the residual Histopaque was washed away using repeated centrifugations in HBSS. After washes, cells were resuspended at 5 million cells per ml in RPMI, supplemented with 2% FBS. To remove adherent cells, the suspension was plated onto a 6 well flat-bottom plate (Corning Costar), 3 ml/well, and incubated for 2 hours at 37° C., 5% CO2. Non-adherent cells were harvested after this incubation, were counted and resuspended in RPMI supplemented with 10% human serum (Sigma).
All drugs were pre-plated before the cell suspension was added onto each well of a 96-well round-bottom plate. All experimental conditions were assayed in at least triplicate. Cells suspended in RPMI supplemented with 10% human serum were plated at 100,000 cells per well to a final volume of 200 μl. […] Control samples received no ConA stimulation. The plates were incubated at 37° C. and 5% CO2. One microCurie of tritiated thymidine was added to each well after 60 hours, and the plates were harvested 12 hours later.

[2] = test system: RPMI 8226 multiple myeloma cells; experiment: RPMI 8226 cell proliferation / viability (trypan blue, MTT, 3H-thymidine); assay type: cell-based, human; settings: low dose-titration, FIGS. 23, 24 and 25
Protocol: The human plasmacytoma (multiple myeloma) cell line, RPMI 8226 (American Type Culture Collection, Manassas, Va.), was cultured in RPMI 1640 supplemented with 10 mM HEPES, 1 mM sodium pyruvate, 4.5 g/L glucose, 1.5 g/L bicarbonate and 20% FBS (non-heat inactivated).
Cell proliferation was assayed by three methods—Trypan Blue Exclusion was used to quantify the number of viable cells in culture; 3-(4,5-dimethylthiazol-2-yl)-2,5-diphenyl tetrazolium bromide (MTT) reduction was used to assay mitochondrial activity (and thus cell viability); and ^3H-Thymidine uptake was employed to assay for active DNA synthesis.
The following 5-HT receptor modulating compounds were tested for their effects on RPMI 8226 cells in vitro cultured at the described densities and across the indicated concentration ranges.

human lymphocytes [3] = experiment: Human mixed lymphocyte reaction (allogeneic stimulation); assay type: cell-based; settings: allogeneic stimulation, harvested 120 hours, FIGS. 7B, 8B, 9B
Text: Blood from two healthy, non-related, donors was taken as described above. Peripheral blood mononuclear cells were isolated as described previously elsewhere. The adherent cells were separated from the suspension cells as described previously for both donors. Suspension cells from both donors (donors A and B) were used as responders. The remaining adherent cells from each of the donors were used as stimulators against a different donor (suspension A against adherent B and adherent A against suspension B). The stimulator cells were irradiated at 35 Gy. Drugs were pre-plated onto 96 well, U-bottom plates in triplicate. 200,000 “stimulator” cells in RPMI supplemented with 10% human serum were then plated in each well. 200,000 “responder” cells in the same medium were then plated over stimulators to a final volume of 200 μl/well. Background controls received either no stimulator cells, or no responder cells. The plates were incubated at 37° C. and 5% CO2. 1 μCi of tritiated thymidine was added to each well after 4.5 days, and the plates were harvested 12 hours later.

RPMI-8226 cells = experiment: Hematoxylin-eosin / bis-benzamide staining of RPMI-8226 cytospins; assay type: cell-based, human
Protocol: 2.0×10^5 RPMI-8226 cells were cultured, in 6-well culture plates, in the presence of the indicated drug concentrations, in a total of 5 mL RPMI-1640 supplemented with 10% FBS. Each well was harvested in its entirety and divided into two identical samples for cytospins.
1.0×10^5 RPMI-8226 cells from each treatment group were loaded into Cyto-funnels and centrifuged at 500 rpm for 4 minutes with medium acceleration. Slides were then fixed through graded methanol in PBS (100%, 5 minutes; 80%, 5 minutes; 50%, 5 minutes), washed for 5 minutes in PBS and stored in PBS at 4° C. until stained.
Cytospun slides were stained with Hematoxylin and Eosin, followed by the nuclear stain, bis-benzamide, rinsed and mounted according to standard staining protocols. Slides were visualized under both brightfield and fluorescent light to generate matched images of the same slide field (see, e.g., FIGS. 28 and 29).

## 5-methyl hydroxytryptamine
Murine lymphocytes
  effect on outcome of murine MLR: slight enhancement

## N[C@@H](Cc1c[nH]c2ccccc12)C(=O)O [tryptophan]
T cells
  restoration of T cell proliferation in conditioned media: had no effect
Human lymphocytes [1]; ConA 1 μg/ml, added to phenelzine-inhibited cells, 100 μM each, FIG. 6
  relief of phenelzine-induced inhibition: had very little effect
Human lymphocytes [1]; ConA 1 μg/ml, reagent 100 μM, FIG. 6
  effect on proliferative response: enhanced the proliferative response
Human lymphocytes [1]; highest ConA dose, 10 μg/ml, harvest 72 hours, FIG. 5C
  effect on proliferative response: no enhancement at the highest level
Human lymphocytes [1]; reagents at 400 μM, time course, FIG. 4
  effect on stimulation of ConA-stimulated human PBLs: enhanced the maximal stimulation of the cells
Human lymphocytes [1]; weakest signal strength, 0.1 μg/ml ConA, harvest 72 hours, FIG. 5A
  effect on proliferative response: augments the proliferative response

## CSc1ccc2c(c1)C(N1CCN(C)CC1)Cc1ccccc1S2 (centres unmarked) [methiothepin]
[2]
  effect on growth of RPMI-8226 cells: strong inhibition of growth
Human lymphocytes [3]
  effect on activation / proliferative response: inhibit the activation response at pharmacologically relevant concentrations
Human lymphocytes [1]; harvested 72 hours
  effect on activation / proliferative response: inhibit the activation response at pharmacologically relevant concentrations

## Cc1cc2c(cc1Cl)N(C(=O)Nc1ccc(Oc3cccnc3C)nc1)CC2 [SB 242084]
[2]
  effect on growth of RPMI-8226 cells: strong inhibition of growth
RPMI-8226 cells; 50 μM, 9 hour treatment, FIGS. 28, 29
  chromatin / nuclear morphology: condensed and fragmented chromatin
RPMI-8226 cells; FIGS. 28 and 29
  induction of programmed cell death: induced programmed cell death comparable to that induced by the topoisomerase I inhibitor, camptothecin
Human lymphocytes [3]
  effect on activation / proliferative response: inhibit the activation response at pharmacologically relevant concentrations
Human lymphocytes [1]; ConA 1 μg/ml, harvested 72 hours, FIG. 12
  inhibitory profile when dosed at time=0 or time=48 hours: retained the complete inhibitory profile
Human lymphocytes [1]; harvested 72 hours
  effect on activation / proliferative response: inhibit the activation response at pharmacologically relevant concentrations

## CNc1cc(NS(=O)(=O)c2ccc(N)cc2)nc(NC)n1 [Ro 04-679]
Murine lymphocytes
  effect on outcome of murine MLR: no effects on the outcome of the assay

Reference: patent publication US6979447B2, “Immunomodulation and effect on cell processes relating to serotonin family receptors” (Philadelphia Health and Education Corporation, priority 2001, dated 2005)
